3 molecules from patent US8853246B2 (Dow AgroSciences LLC, priority 2009, dated 2014) can be followed below.

Series [1] concerns Green Peach Aphid (Myzus Persicae). Kind of series: Insecticidal test for green peach aphid in foliar spray assay (col. MYZUPE). The format is in vivo. The settings on record: Myzus persicae, 72 h, green peach aphid, read-out: MYZUPE 200 ppm (Corrected % Control, rating). The essentials:
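Cabbage seedlings with 2-3 true leaves, infested with 20-50 wingless adult and nymph aphids one day earlier, sprayed to runoff at 200 ppm (acetone/methanol stock diluted in 0.025% Tween 20), four pots per treatment. After 3 days at ~25 °C, 40% RH, live aphids counted; corrected % control versus solvent-sprayed plants.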

Series [2] deals with Cotton Aphid (Aphis Gossypii). Kind of series: Insecticidal test for cotton aphid in foliar spray assay (col. APHIGO). The settings on record: Aphis gossypii, 72 h, read-out: APHIGO 200 ppm (Corrected % Control, rating). The format is in vivo. The procedure:
The compounds were tested against cotton aphid, green peach aphid, and sweet potato whitefly using procedures described in the following examples and reported in Table 2.
In each case of Table 2, the rating scale is as follows at 200 ppm.
Insecticidal Test for Cotton Aphid (Aphis Gossypii) in Foliar Spray Assay
Squash or cotton seedlings with fully expanded cotyledon leaves were trimmed to one cotyledon per plant and infested with cotton aphid (wingless adult and nymph) one day prior to chemical application. Each plant was examined before chemical application to ensure uniform infestation (ca. 30-70 aphids per plant). Compounds (2 mg) were dissolved in 2 mL of acetone/methanol (1:1) solvent, forming stock solutions of 1000 ppm. The stock solutions were diluted 5× with 0.025% Tween 20 in H2O to obtain a solution at 200 ppm. A hand-held Devilbiss aspirator type sprayer was used to apply the spray solutions until runoff to both sides of the squash cotyledon leaves. Four plants (4 replications) were used for each concentration of each compound. Reference plants (solvent check) were sprayed with the diluent only. Treated plants were held in a holding room for three days at approximately 25° C. and 40% RH before the number of live aphids on each plant was recorded. Insecticidal activity was measured by Corrected % Control using Abbott's correction formula and presented in Table 2 (see col. “APHIGO”): Corrected % Control=100*(X−Y)/X • where X=No. of live aphids on solvent check plants • Y=No. of live aphids on treated plants

Series [3] has as its system Sweetpotato Whitefly-Crawler (Bemisia Tabaci). Kind of series: Insecticidal test for sweetpotato whitefly-crawler in foliar spray assay (col. BEMITA). The format is in vivo. As to conditions: Bemisia tabaci, sweetpotato whitefly-crawler, read-out: BEMITA 200 ppm (Corrected % Control, rating). In a few lines:
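Cotton plants (one 3-5 cm true leaf) infested with whitefly eggs (100-300/plant), held 5-6 days at 82° F, 50% RH until crawlers developed. Sprayed to runoff at 200 ppm (acetone stock diluted in 0.025% Tween 20), four plants per treatment. Live nymphs counted after 8-9 days; % control by Abbott's correction versus solvent check.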

Bounds are passed on as bounds.

Molecule `COc1ccc(CN(C(=O)OC(C)(C)C)c2cnc(-c3cccnc3)s2)cc1` [Compound 244] returned a melting point of 124 to 126 °C. In addition, the pest or weed control at 200 ppm in series [1] is < 80%. For the same molecule, the pest or weed control at 200 ppm in series [2] is < 80%. Also, the pest or weed control at 200 ppm in series [3] was < 80%.

In turn, `CCN(C(=O)OC(C)(C)C)c1cnc(-c2cncc(F)c2)s1` [Compound 245] gave a melting point of 89 to 92 °C. Further, the pest or weed control at 200 ppm in series [1] fell in the range of 80 to 100%. In series [2], the pest or weed control at 200 ppm lay within 80 to 100%. Further, the pest or weed control at 200 ppm in series [3] fell in the range of 80 to 100%.

Consider `CN(C(=O)CC[S+](C)[O-])c1sc(-c2cncc(F)c2)nc1Cl` (stereo not drawn) [Compound 272], for which the melting point was in the range of 123 to 126 °C. Moreover, the pest or weed control at 200 ppm in series [1] lay in the range of 80 to 100%. In addition, the pest or weed control at 200 ppm in series [2] lay within 80 to 100%. Moreover, the pest or weed control at 200 ppm in series [3] fell in the range of 80 to 100%.

Usually melting point stands for the temperature, or range, at which the solid turns liquid.
